According to US10662140B2, “Method for skin-whitening using composition containing resveratryl triglycolate” (KYUNGPOOK NATIONAL UNIVERSITY INDUSTRY-ACADEMIC COOPERATION …, priority 2016, dated 2020):
Where two headings read alike, the source gives them in different places.

Legend:
[1] = test system: HEMs; test: Melanin synthesis in L-tyrosine-stimulated HEMs; assay type: cell-based, human; conditions: for effect on melanin synthesis: concentrations of up to 10 μM
Method: Human epidermal melanocytes (HEM) derived from neonatal human foreskins were purchased from Cascade Biologics (Portland, Oreg., USA). The HEMs were cultivated in Medium 254 supplemented with human melanocyte growth supplements (Cascade Biologics) and antibiotics.
The extracellular melanin levels were evaluated by measuring the absorbance of the conditioned media at a wavelength of 490 nm, while the intracellular melanin levels were evaluated after extracting melanin from the cells using 0.1 M NaOH at 60° C. for 60 minutes. The values for melanin content were normalized with respect to the protein content in each sample. The protein content was evaluated using the Bio-Rad DC assay (Bio-Rad Laboratories, Inc., Hercules, Calif., USA).

[2] = test system: Human epidermal melanocytes (HEM); conditions: HEMs, 48 hours
[3] = test system: cultivated melanocytes and a reconstituted skin tissue model; conditions: cited from earlier work
[4] = test system: human epidermal melanocytes; conditions: cited from earlier work

O=C(CO)Oc1ccc(/C=C/c2cc(OC(=O)CO)cc(OC(=O)CO)c2)cc1 [resveratryl triglycolate]
melanin level [1]: reduced

OC[C@H]1O[C@@H](Oc2ccc(O)cc2)[C@H](O)[C@@H](O)[C@@H]1O [arbutin]
effect on melanin synthesis [1]: no effect
effect on melanin synthesis ([1]; listed as Arbutin): no significant effect

CC(=O)Oc1ccc(C=Cc2cc(OC(C)=O)cc(OC(C)=O)c2)cc1 [RTA, resveratryl triacetate]
cytotoxicity ([2]; concentrations above 30 μM): showed cytotoxicity
cytotoxicity ([2]; concentrations below 30 μM): barely showed cytotoxicity
stability to oxidation ([3]; compared to resveratrol): higher stability
toxicity ([3]; compared to resveratrol): less toxic
melanin synthesis ([3]; cultivated melanocytes and reconstituted skin tissue model): effective inhibitor

Oc1ccc(C=Cc2cc(O)cc(O)c2)cc1 [resveratrol]
activity of MITF and TYR promoter [4]: suppresses
melanin synthesis [4]: inhibit melanin synthesis

O=C(O)CO [GA, glycolic acid]
effect on melanin synthesis [1]: no significant effect
